In the test the target is T1, recombinant human KLK5 (Homo sapiens, UniProt Q9Y337).
T1 construct: purchased Novoprotein or R&D Systems C415 or 1108-SE
T1 sequence (Q9Y337 23-293): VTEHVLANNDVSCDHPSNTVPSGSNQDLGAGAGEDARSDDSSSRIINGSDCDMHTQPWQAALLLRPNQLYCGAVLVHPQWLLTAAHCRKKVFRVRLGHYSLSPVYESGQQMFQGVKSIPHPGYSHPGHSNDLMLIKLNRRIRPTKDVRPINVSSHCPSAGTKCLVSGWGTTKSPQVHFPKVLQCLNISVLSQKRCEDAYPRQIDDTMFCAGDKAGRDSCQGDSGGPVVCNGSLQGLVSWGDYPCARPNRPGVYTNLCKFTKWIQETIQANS
Briefly: Kallikrein (KLK) 5 enzymatic assay (Boc-VPR-AMC fluorogenic substrate). Type of test: biochemical. Conditions: recombinant human KLK5 0.1 μg/well, Boc-VPR-AMC 100 μM, pH 7.5, room temperature, 1% DMSO; tested a minimum of three times. Put shortly:
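Fluorogenic rate assay at pH 7.5 (0.1 M NaH2PO4, 1% DMSO, room temperature), run at least three times per compound. Compound was premixed with 0.1 μg/well recombinant human KLK5 before adding 100 μM Boc-VPR-AMC; AMC release was read at ex 380/em 460 nm, and IC50 derived from inhibition of rate vs DMSO control.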

Where only a bound is given, the exact number is not on record here.

In general, IC50 refers to the midpoint of a concentration-inhibition curve. `Nc1nccc2c(-c3ccc4c(c3)c(COc3ccccc3CC(=O)O)nn4C3CCC(F)(F)C3)cccc12` (centres unmarked) [Compound 265h, 2-(2-((5-(1-aminoisoquinolin-5-yl)-1-(3,3-difluorocyclopentyl)-1H-indazol-3-yl)methoxy)phenyl)acetic acid]: the IC50 is less than 1000 nM.

Consider `Nc1nccc2ccc(-c3ccc4c(c3)c(COc3ccccc3CC(=O)O)nn4C3CCC(F)(F)C3)cc12` (centres unmarked) [Compound 266b, 2-(2-((5-(1-aminoisoquinolin-7-yl)-1-(3,3-difluorocyclopentyl)-1H-indazol-3-yl)methoxy)phenyl)acetic acid], for which the IC50 is less than 1000 nM.

With `COc1cccc(CC(=O)O)c1OCc1coc2c(OC)cc(-c3ccc4ccnc(N)c4c3)cc12` [Compound 267g, 2-(2-((5-(1-aminoisoquinolin-7-yl)-7-methoxybenzofuran-3-yl)methoxy)-3-methoxyphenyl)acetic acid], the concentration for half-maximal inhibition (IC50) is greater than 10000 nM.

Consider `N=C(N)c1cccc(-c2cc3c(COc4ccccc4C(O)C(=O)O)cccc3o2)c1` (centres unmarked) [Compound 268d, 2-(2-((2-(3-carbamimidoylphenyl)benzofuran-4-yl)methoxy)phenyl)-2-hydroxyacetic acid], for which the IC50 is 1000 to 10000 nM.

On to `COc1cc2nn(C3CCC3)c(COc3ccccc3CC(=O)O)c2cc1-c1ccc2ccnc(N)c2c1` [Compound 269f, 2-(2-((5-(1-aminoisoquinolin-7-yl)-2-cyclobutyl-6-methoxy-2H-indazol-3-yl)methoxy)phenyl)acetic acid], for which the IC50 was less than 1000 nM.

As to `COc1cc2nn(C3CCC3)c(COc3ccccc3CC(=O)O)c2cc1-c1cccc2c(N)nccc12` [Compound 270b, 2-(2-((5-(1-aminoisoquinolin-5-yl)-2-cyclobutyl-6-methoxy-2H-indazol-3-yl)methoxy)phenyl)acetic acid], the IC50 is greater than 10000 nM.

For `COc1cc2nn(C3CCC3)c(COc3ccccc3CC(=O)O)c2cc1-c1cccc(C(=N)N)c1` [Compound 271c, 2-(2-((5-(3-carbamimidoylphenyl)-2-cyclobutyl-6-methoxy-2H-indazol-3-yl)methoxy)phenyl)acetic acid], the 50% inhibitory concentration (IC50) was in the range of 1000 to 10000 nM.

Turning to `CC(C)Oc1c(C(=N)N)cccc1-c1ccc2c(c1)c(COc1ccccc1CC(=O)O)nn2C(C)C` [Compound 272f, 2-(2-((5-(3-carbamimidoyl-2-isopropoxyphenyl)-1-isopropyl-1H-indazol-3-yl)methoxy)phenyl)acetic acid], the IC50 lay in the range of 1000 to 10000 nM.

On to `CCOc1c(C(=N)N)cccc1-c1ccc2c(c1)c(COc1ccccc1CC(=O)O)nn2C(C)C` [Compound 273e, 2-(2-((5-(3-carbamimidoyl-2-ethoxyphenyl)-1-isopropyl-1H-indazol-3-yl)methoxy)phenyl)acetic acid], for which the IC50 was less than 1000 nM.

As to `Nc1nccc2c(-c3ccc4c(c3)c(Cn3ccc5cccc(C(=O)O)c53)nn4C3CCOC3)cccc12` (centres unmarked) [Compound 274e, 1-((5-(1-aminoisoquinolin-5-yl)-1-(tetrahydrofuran-3-yl)-1H-indazol-3-yl)methyl)-1H-indole-7-carboxylic acid], the IC50 was in the range of 1000 to 10000 nM.

As to `Nc1nccc2ccc(-c3ccc4c(c3)c(Cn3ccc5cccc(C(=O)O)c53)nn4C3CCOC3)cc12` (centres unmarked) [Compound 275b, 1-((5-(1-aminoisoquinolin-7-yl)-1-(tetrahydrofuran-3-yl)-1H-indazol-3-yl)methyl)-1H-indole-7-carboxylic acid], the IC50 was greater than 10000 nM.

With `Cc1cccc(OCc2nn(C3CCC(F)(F)C3)c3ccc(-c4cccc5c(N)nccc45)cc23)c1CC(=O)O` (centres unmarked) [Compound 276c, 2-(2-((5-(1-aminoisoquinolin-5-yl)-1-(3,3-difluorocyclopentyl)-1H-indazol-3-yl)methoxy)-6-methylphenyl)acetic acid], the half-maximal inhibitory concentration (IC50) was less than 1000 nM.

On to `Cc1cccc(OCc2nn(C3CCC(F)(F)C3)c3ccc(-c4ccc5ccnc(N)c5c4)cc23)c1CC(=O)O` (centres unmarked) [Compound 277b, 2-(2-((5-(1-aminoisoquinolin-7-yl)-1-(3,3-difluorocyclopentyl)-1H-indazol-3-yl)methoxy)-6-methylphenyl)acetic acid], for which the IC50 was less than 1000 nM.

Regarding `CC(C)(C)OC(=O)NCc1cc(-c2cccc3c(N)nccc23)cc2c(COc3ccccc3CC(=O)O)nn(C3CCCCO3)c12` (centres unmarked) [Compound 278c, 2-(2-((5-(1-aminoisoquinolin-5-yl)-7-(((tert-butoxycarbonyl)amino)methyl)-1-(tetrahydro-2H-pyran-2-yl)-1H-indazol-3-yl)methoxy)phenyl)acetic acid], the IC50 lay in the range of 1000 to 10000 nM.

As for `Nc1nccc2c(-c3cnc4c(c3)c(COc3ccccc3CC(=O)O)cn4C3CCOC3)cccc12` (centres unmarked) [Compound 279g, 2-(2-((5-(1-aminoisoquinolin-5-yl)-1-(tetrahydrofuran-3-yl)-1H-pyrrolo[2,3-b]pyridin-3-yl)methoxy)phenyl)acetic acid], the half-inhibitory concentration (IC50) was less than 1000 nM.

On to `NCc1cc(-c2cccc3c(N)nccc23)cc2c(COc3ccccc3CC(=O)O)n[nH]c12` [Compound 280a, 2-(2-((5-(1-aminoisoquinolin-5-yl)-7-(aminomethyl)-1H-indazol-3-yl)methoxy)phenyl)acetic acid], for which the IC50 was in the range of 1000 to 10000 nM.

As for `Nc1nccc2ccc(-c3ccc4c(c3)c(COc3ccccc3CC(=O)O)nn4C3CCOCC3)cc12` [Compound 281g, 2-(2-((5-(1-aminoisoquinolin-7-yl)-1-(tetrahydro-2H-pyran-4-yl)-1H-indazol-3-yl)methoxy)phenyl)acetic acid], the IC50 is less than 1000 nM.

Consider `Nc1nccc2c(-c3ccc4c(c3)c(COc3ccccc3CC(=O)O)nn4C3CCOCC3)cccc12` [Compound 282b, 2-(2-((5-(1-aminoisoquinolin-5-yl)-1-(tetrahydro-2H-pyran-4-yl)-1H-indazol-3-yl)methoxy)phenyl)acetic acid], for which the IC50 is less than 1000 nM.

For the compound `Nc1nccc2ccc(-c3ccc4c(c3)c(COc3ccccc3CC(=O)O)nn4C3CCCOC3)cc12` (centres unmarked) [Compound 283g, 2-(2-((5-(1-aminoisoquinolin-7-yl)-1-(tetrahydro-2H-pyran-3-yl)-1H-indazol-3-yl)methoxy)phenyl)acetic acid], the IC50 is less than 1000 nM.

For the compound `Nc1nccc2c(-c3ccc4c(c3)c(COc3ccccc3CC(=O)O)nn4C3CCCOC3)cccc12` (centres unmarked) [Compound 284b, 2-(2-((5-(1-aminoisoquinolin-5-yl)-1-(tetrahydro-2H-pyran-3-yl)-1H-indazol-3-yl)methoxy)phenyl)acetic acid], the IC50 is less than 1000 nM.

As to `Nc1nccc2c(-c3ccc4c(c3)N(Cc3ccccc3CC(=O)O)CC4)cccc12` [Compound 285d, 2-(2-((6-(1-aminoisoquinolin-5-yl)indolin-1-yl)methyl)phenyl)acetic acid], the IC50 lay within 1000 to 10000 nM.

Take `NC(=O)c1cc(-c2cccc3c(N)nccc23)cc2c(COc3ccccc3CC(=O)O)nn(C3CCCCO3)c12` (centres unmarked) [Compound 286a, 2-(2-((5-(1-aminoisoquinolin-5-yl)-7-carbamoyl-1-(tetrahydro-2H-pyran-2-yl)-1H-indazol-3-yl)methoxy)phenyl)acetic acid]: the IC50 is 1000 to 10000 nM.

Regarding `NCc1cc(-c2cccc3c(N)nccc23)cc2c(COc3ccccc3CC(=O)O)nn(C3CCCCO3)c12` (centres unmarked) [Compound 287a, 2-(2-((5-(1-aminoisoquinolin-5-yl)-7-(aminomethyl)-1-(tetrahydro-2H-pyran-2-yl)-1H-indazol-3-yl)methoxy)phenyl)acetic acid], the IC50 fell in the range of 1000 to 10000 nM.

The values above are taken from patent publication US20240239752A1, “BICYCLIC HETEROAROMATIC INHIBITORS OF KLK5” (BioCryst Pharmaceuticals, Inc., priority 2021, published 2024).
